# In US9028874B2, “Antioxidant nanosphere comprising [1,2]-dithiolane moieties” (Cedars-Sinai Medical Center, priority 2008, dated 2015):
# Legend:
# [1] = Nanosphere formation by spontaneous emulsification; hydrodynamic size and polydispersity by dynamic light scattering; type: physicochemical; settings: 25 mg/5 mL acetone into 10 mL 0.25% w/v Pluronic F-68 in water
# Method: Nanospheres were prepared according to the method using spontaneous emulsification with slight modification. Briefly, 25 mg of the compounds were dissolved in acetone (5 mL). The organic solution was poured under moderate stirring on a magnetic plate into an aqueous phase prepared by dissolving 25 mg of Pluronic F68 in 10 mL bidistilled water (0.25% w/v). Following 15 min of magnetic stirring, the acetone was removed under reduced pressure at room temperature. The nanospheres were filtered through 0.45 μm hydrophilic syringe filter and stored at 4° C. The hydrodynamic size measurement and size distribution of the nanospheres was performed by the dynamic light scattering (DLS) using a Coulter N4-Plus Submicron Particle Sizer (Coulter Corporation, Miami, Fla.). The nanospheres were purified by centrifuging three times at 20,000×g for 30 min at 25° C. and resuspending each time in the same volume of deionized water. […] The size was assessed on three separate batches of the nanosphere formulation. The recovery yield was calculated as follows: RY (%)=(mass of the mALA-containing compounds recovered/mass of the mALA-containing compounds used in formulation)×100%. […] The solution was analyzed for the compounds by RP-HPLC. Separation was performed using 80% acetonitrile (0.1% trifluoroacetic acid, TFA) as mobile phase and the eluent was monitored using UV detector at 330 nm. […]
# [2] = DPPH radical scavenging assay, Method A (dissolved DPPH); type: biochemical; settings: Method A: 50 μM DPPH dissolved in ethanol/water; violet to pale yellow
# Method: Method A: 5 mL of 100 μM DPPH solution in ethanol was mixed with 5 mL of water, resulting in a final concentration of 50 μM for DPPH. Trolox and ascorbic acid were dissolved in 100 mM sodium phosphate buffer (pH 7.5, 2.5 mM). The concentration of α-tocopherol in nanospheres was adjusted to 2.5 mM. The predetermined amount of Trolox, ascorbic acid solution and nanospheres were added to the DPPH solution using Hamilton syringe carefully to the bottom of 20 mL glass bottle to minimize the premature mixing. After gentle mixing, pictures were taken using digital camera (50000 pxitex).
# The antioxidant capability of the nanospheres was assessed by the scavenging activity of DPPH free radical. The DPPH radical scavenging assay is often used as a model for the measurement of lipid radial scavenging activity of antioxidant compounds. […] The DPPH radical scavenging assay is usually performed in a 50:50 mixture of water and organic solvents, commonly ethanol or dimethyl suloxide, in which the DPPH radical is completely dissolved. In this condition (Method A), the violet color of DPPH radical solution converted instantaneously to the pale yellow color, which is indicative of an instantaneous DPPH radical scavenging by the nanospheres (FIG. 6a, Method A).
# [3] = DPPH radical scavenging assay, Method B (fine dispersed DPPH suspension); type: biochemical; settings: Method B: DPPH suspension in water
# Method: Method B: 400 μL of 1.25 mM DPPH solution in ethanol was added to 9500 μL of water to give a fine dispersed DPPH suspension. Pictures were taken as described above.
# In the method B (FIG. 6a), 400 μL of 1.25 mM DPPH solution in ethanol was added to 9500 μL of water to give a fine dispersed DPPH suspension with the particle size of 164±26 nm (polydispersity index 0.03).
Compound,formation of stable nanospheres [1],DPPH radical scavenging (color change) [2],DPPH radical scavenging (color change) [3]
"O=C(CCCCC1CCSS1)OCCOCCOCCOCCOC(=O)CCCCC1CCSS1 (stereo not drawn) [Compound 4a, 2×Lipoic Acid/Tetraethylene Glycol]",failure,,
"O=C(CCCCC1CCSS1)OCCN1CCN(CCOC(=O)CCCCC2CCSS2)CC1 (stereo not drawn) [Compound 7a, 2×Lipoic acid/1,4-Bis(2-hydroxyethyl)-piperazine]",failure,,
Cc1c(C)c2c(c(C)c1O)CCC(C)(C(=O)O)O2 (stereo not drawn) [Trolox],,complete and occurred instantaneously,much less color changes
O=C1O[C@H]([C@@H](O)CO)C(O)=C1O [ascorbic acid],,complete and occurred instantaneously,much less color changes
